In ChEMBL document CHEMBL4834463, “Synthesis and fungicidal activity of novel 2-(2-alkylthio-6-phenylpyrimidin-4-yl)-1H-benzimidazoles” (Bioorg Med Chem Lett, 2021):
≈ marks a conversion by molar mass, not a printed value.

How the values were obtained:
Sclerotinia sclerotiorum = test: Antifungal activity against Sclerotinia sclerotiorum assessed as inhibition of mycelia growth incubated for 48 hrs; assay type: functional, organism-based
Botrytis cinerea = test: Antifungal activity against Botrytis cinerea assessed as inhibition of mycelia growth incubated for 48 hrs; assay type: functional, organism-based

Row | SMILES | EC50 (Sclerotinia sclerotiorum) | EC50 (Botrytis cinerea)
1 | CSc1nc(-c2ccc(F)cc2)cc(-c2nc3ccccc3[nH]2)n1 | 16.6 µg/mL (≈ 49.5 µM) | 0.95 µg/mL (≈ 2.82 µM)
2 | c1ccc(CSc2nc(-c3ccccc3)cc(-c3nc4ccccc4[nH]3)n2)cc1 | 8.95 µg/mL (≈ 22.7 µM) | 7.02 µg/mL (≈ 17.8 µM)
3 | CCCCSc1nc(-c2ccc(OC)cc2)cc(-c2nc3ccccc3[nH]2)n1 | 16.4 µg/mL (≈ 41.9 µM) | 2.45 µg/mL (≈ 6.27 µM)
4 | Fc1ccc(-c2cc(-c3nc4ccccc4[nH]3)nc(SCc3ccccc3)n2)cc1 | 4.65 µg/mL (≈ 11.3 µM) | 0.14 µg/mL (≈ 0.339 µM)
5 | COc1ccc(-c2cc(-c3nc4ccccc4[nH]3)nc(SC)n2)cc1 | 23.5 µg/mL (≈ 67.4 µM) | 0.41 µg/mL (≈ 1.18 µM)
6 | Clc1ccc(-c2cc(-c3nc4ccccc4[nH]3)nc(SCc3ccccc3)n2)cc1 | 14 µg/mL (≈ 32.6 µM) | 0.2 µg/mL (≈ 0.466 µM)
7 | CSc1nc(-c2ccc(Cl)cc2)cc(-c2nc3ccccc3[nH]2)n1 | 17.3 µg/mL (≈ 49 µM) | 1.15 µg/mL (≈ 3.26 µM)
8 | COc1ccc(-c2cc(-c3nc4ccccc4[nH]3)nc(SCc3ccccc3)n2)cc1 | 10.2 µg/mL (≈ 24 µM) | 0.28 µg/mL (≈ 0.66 µM)
9 | CSc1nc(-c2ccccc2)cc(-c2nc3ccccc3[nH]2)n1 | 45 µg/mL (≈ 141 µM) | 0.15 µg/mL (≈ 0.471 µM)
10 | CCCCSc1nc(-c2ccc(F)cc2)cc(-c2nc3ccccc3[nH]2)n1 | 6.72 µg/mL (≈ 17.8 µM) | 0.16 µg/mL (≈ 0.423 µM)
11 | CCCCSc1nc(-c2ccc(Cl)cc2)cc(-c2nc3ccccc3[nH]2)n1 | 20.6 µg/mL (≈ 52.1 µM) | 10.1 µg/mL (≈ 25.6 µM)
12 | CCCCSc1nc(-c2ccccc2)cc(-c2nc3ccccc3[nH]2)n1 | 22.3 µg/mL (≈ 61.9 µM) | 0.34 µg/mL (≈ 0.943 µM)
13 | COC(=O)Nc1nc2ccccc2[nH]1 [CARBENDAZIM] | 13.3 µg/mL (≈ 69.7 µM) | 0.21 µg/mL (≈ 1.1 µM)
